Consider 41 molecules from US11352339B2 (MISSION THERAPEUTICS LIMITED, priority 2016, dated 2022).

Each structure is given as a SMILES string.

USP30, sequence (Q70CQ3 57-517): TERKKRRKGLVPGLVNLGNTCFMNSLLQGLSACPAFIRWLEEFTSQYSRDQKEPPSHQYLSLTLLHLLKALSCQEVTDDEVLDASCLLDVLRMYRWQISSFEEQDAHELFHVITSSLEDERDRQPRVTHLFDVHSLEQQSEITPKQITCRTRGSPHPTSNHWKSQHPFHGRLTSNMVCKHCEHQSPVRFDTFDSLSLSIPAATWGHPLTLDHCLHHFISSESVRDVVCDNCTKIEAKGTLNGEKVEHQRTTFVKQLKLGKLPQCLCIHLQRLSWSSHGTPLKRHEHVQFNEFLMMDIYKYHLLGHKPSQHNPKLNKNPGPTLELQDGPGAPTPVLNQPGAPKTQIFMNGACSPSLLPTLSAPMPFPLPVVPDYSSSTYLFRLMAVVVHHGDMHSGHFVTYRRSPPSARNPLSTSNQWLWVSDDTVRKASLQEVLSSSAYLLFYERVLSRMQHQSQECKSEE

In this test the target is USP30 (Homo sapiens (Human), UniProt Q70CQ3). Nature of the test: USP30 Biochemical IC50 Assay. Particulars: fluorescence polarisation, TAMRA labelled peptide linked to ubiquitin; 30 min pre-incubation, read after 2 h; read-out: IC50 range. Summed up:
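Fluorescence polarisation cleavage assay, duplicate wells: substrate is a TAMRA peptide joined to ubiquitin by an iso-peptide bond (50 nM), added after 30 min room-temperature compound–enzyme incubation. Readings at 540/590 nm immediately and at 2 h.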
For orientation: Polarisation of emitted light reports the rotation of a fluorescent probe.
For `N#CN1CCC(c2nc3cc(-c4ccncc4)cnc3[nH]2)C1` (centres unmarked) [Example 80, 3-(6-(Pyridin-4-yl)-3H-imidazo[4,5-b]pyridin-2-yl)pyrrolidine-1-carbonitrile], the IC50 fell in the range of 100 to 1000 nM.

Take `N#CN1CCC(c2nc3cc(-c4ccccc4)ccc3[nH]2)C1` (centres unmarked) [Example 95, 3-(5-Phenyl-1H-benzo[d]imidazol-2-yl)pyrrolidine-1-carbonitrile]: the IC50 is 100 to 1000 nM.

Turning to `C[C@@H]1CN(C#N)C[C@H]1c1cc(-c2cccc(-c3ccccc3)c2)nn1C` [Example 24], the IC50 was in the range of 100 to 1000 nM.

Consider `N#Cc1cccc(-c2cnc3[nH]c(C4CCN(C#N)C4)nc3c2)c1` (centres unmarked) [Example 85, 3-(6-(3-Cyanophenyl)-3H-imidazo[4,5-b]pyridin-2-yl)pyrrolidine-1-carbonitrile], for which the IC50 fell in the range of 100 to 1000 nM.

As to `N#Cc1cccc(-c2ccc3nc([C@@H]4CCCN4C#N)oc3c2)n1` [Example 132, (S)-6-(2-(1-Cyanopyrrolidin-2-yl)benzo[d]oxazol-6-yl)picolinonitrile], the IC50 was 1000 to 10000 nM.

As for `CNC(=O)c1cccc(-c2cnc3[nH]c(C4CCN(C#N)C4)nc3c2)c1` (single isomer, unassigned) [Example 92, 3-(2-(1-Cyanopyrrolidin-3-yl)-3H-imidazo[4,5-b]pyridin-6-yl)-N-methylbenzamide], the IC50 is 1000 to 10000 nM.

With `CN(C)S(=O)(=O)c1cccc(-c2cccc(-c3nc(C4CCCN4C#N)no3)c2)c1` (centres unmarked) [Example 150, 3′-(3-(1-Cyanopyrrolidin-2-yl)-1,2,4-oxadiazol-5-yl)-N,N-dimethyl-[1,1′-biphenyl]-3-sulfonamide], the IC50 fell in the range of 1000 to 10000 nM.

`N#Cc1cccc(-c2ccc3oc([C@@H]4CCCN4C#N)nc3c2)c1` [Example 126, (S)-2-(5-(3-Cyanophenyl)benzo[d]oxazol-2-yl)pyrrolidine-1-carbonitrile]: the IC50 is 100 to 1000 nM.

In the case of `C[C@H]1CN(C#N)C[C@@H]1c1[nH]nc(-c2cccc(-c3ccccc3)c2)c1F` [Example 22], the IC50 was under 100 nM.

With `CNC(=O)c1cccc(-c2cnc3[nH]c(C4CCN(C#N)C4)nc3c2)c1` (single isomer, unassigned) [Example 93, 3-(2-(1-Cyanopyrrolidin-3-yl)-3H-imidazo[4,5-b]pyridin-6-yl)-N-methylbenzamide], the IC50 lay within 100 to 1000 nM.

Turning to `N#Cc1cc(-c2nccc(-c3nc([C@@H]4CCCN4C#N)no3)n2)ccn1` [Example 188, (S)-4-(4-(3-(1-Cyanopyrrolidin-2-yl)-1,2,4-oxadiazol-5-yl)pyrimidin-2-yl)picolinonitrile], the IC50 is under 100 nM.

As to `N#CN1CCC(c2[nH]nc(-c3cccc(-c4ccccc4)c3)c2F)C1` (single isomer, unassigned) [Example 17, 3-(3-([1,1′-Biphenyl]-3-yl)-4-fluoro-1H-pyrazol-5-yl)pyrrolidine-1-carbonitrile], the IC50 is under 100 nM.

Consider `N#Cc1cccc(-c2ccc3nc([C@@H]4CCCN4C#N)oc3c2)c1` [Example 128, (S)-2-(6-(3-Cyanophenyl)benzo[d]oxazol-2-yl)pyrrolidine-1-carbonitrile], for which the IC50 lay within 100 to 1000 nM.

For the molecule `N#Cc1cccc(-c2cc(-c3nc(C4CCCN4C#N)no3)ccn2)n1` (centres unmarked) [Example 180, 4′-(3-(1-Cyanopyrrolidin-2-yl)-1,2,4-oxadiazol-5-yl)-[2,2′-bipyridine]-6-carbonitrile], the IC50 lay in the range of 100 to 1000 nM.

For the molecule `Cn1cnc(-c2cccc(-c3cc(C4CCN(C#N)C4)n[nH]3)c2)c1` (centres unmarked) [Example 34, 3-(5-(3-(1-Methyl-1H-imidazol-4-yl)phenyl)-1H-pyrazol-3-yl)pyrrolidine-1-carbonitrile], the IC50 lay within 1000 to 10000 nM.

For `C[C@@H]1CN(C#N)C[C@H]1c1cc(-c2ccncc2)n[nH]1` (relative stereo) [Example 48, Trans-3-methyl-4-(3-(pyridin-4-yl)-1H-pyrazol-5-yl)pyrrolidine-1-carbonitrile], the IC50 lay within 1000 to 10000 nM.

As to `N#Cc1ccc(-c2nccc(-c3nc([C@@H]4CCCN4C#N)no3)n2)cn1` [Example 201, (S)-5-(4-(3-(1-Cyanopyrrolidin-2-yl)-1,2,4-oxadiazol-5-yl)pyrimidin-2-yl)picolinonitrile], the IC50 lay within 100 to 1000 nM.

Turning to `CN1CCN(c2ccc(-c3cc(C4CCN(C#N)C4)[nH]n3)cc2)CC1` (centres unmarked) [Example 5, 3-(3-(4-(4-Methylpiperazin-1-yl)phenyl)-1H-pyrazol-5-yl)pyrrolidine-1-carbonitrile], the IC50 was in the range of 100 to 1000 nM.

On to `N#CN1CCC(c2cc(-c3cncc(-c4ccccc4)c3)[nH]n2)C1` (centres unmarked) [Example 36, 3-(5-(5-Phenylpyridin-3-yl)-1H-pyrazol-3-yl)pyrrolidine-1-carbonitrile], for which the IC50 lay within 100 to 1000 nM.

As to `N#CN1CCCC1c1noc(-c2ccnc(-c3cccc(OC(F)(F)F)c3)n2)n1` (centres unmarked) [Example 184, 2-(5-(2-(3-(Trifluoromethoxy)phenyl)pyrimidin-4-yl)-1,2,4-oxadiazol-3-yl)pyrrolidine-1-carbonitrile], the IC50 was under 100 nM.

Regarding `N#CN1CCC(c2cc(-c3cccc(-c4ccccc4)c3)n[nH]2)C1` (centres unmarked) [Example 14, 3-(3-([1,1′-Biphenyl]-3-yl)-1H-pyrazol-5-yl)pyrrolidine-1-carbonitrile], the IC50 lay in the range of 100 to 1000 nM.

As to `N#CN1CC[C@@H](c2noc(C3CCN(c4ncccn4)CC3)n2)C1` [Example 64, (R)-3-(5-(1-(Pyrimidin-2-yl)piperidin-4-yl)-1,2,4-oxadiazol-3-yl)pyrrolidine-1-carbonitrile], the IC50 lay in the range of 1000 to 10000 nM.

Take `N#Cc1cc(-c2cc(-c3nc([C@@H]4CCCN4C#N)no3)ccn2)ccn1` [Example 181, (S)-4-(3-(1-Cyanopyrrolidin-2-yl)-1,2,4-oxadiazol-5-yl)-[2,4′-bipyridine]-2 carbonitrile]: the IC50 is under 100 nM.

Take `COc1cc(-c2cccc(-c3nc(C4CCCN4C#N)no3)c2)ccn1` (centres unmarked) [Example 144, 2-(5-(3-(2-Methoxypyridin-4-yl)phenyl)-1,2,4-oxadiazol-3-yl)pyrrolidine-1-carbonitrile]: the IC50 lay within 1000 to 10000 nM.

Take `N#CN1CCC(c2cc(-c3cccc(-c4ccccc4)n3)[nH]n2)C1` (single isomer, unassigned) [Example 41, 3-(5-(6-Phenylpyridin-2-yl)-1H-pyrazol-3-yl)pyrrolidine-1-carbonitrile]: the IC50 fell in the range of 100 to 1000 nM.

Take `N#CN1CCC(c2cc(-c3cccc(-c4ccccc4)c3)no2)C1` (single isomer, unassigned) [Example 119, 3-(3-([1,1′-Biphenyl]-3-yl)isoxazol-5-yl)pyrrolidine-1-carbonitrile]: the IC50 is under 100 nM.

`N#Cc1cccc(-c2ccc3oc([C@@H]4CCCN4C#N)nc3c2)n1` [Example 127, (S)-6-(2-(1-Cyanopyrrolidin-2-yl)benzo[d]oxazol-5-yl)picolinonitrile]: the 50% inhibitory concentration (IC50) fell in the range of 1000 to 10000 nM.

For the molecule `N#CN1CCC(c2cc(-c3ccc(-c4ccccc4)cc3)[nH]n2)C1` (centres unmarked) [Example 35, 3-(5-([1,1′-Biphenyl]-4-yl)-1H-pyrazol-3-yl)pyrrolidine-1-carbonitrile], the IC50 fell in the range of 100 to 1000 nM.

Turning to `Cc1noc(C)c1-c1cccc(-c2nc(C3CCCN3C#N)no2)c1` (centres unmarked) [Example 147, 2-(5-(3-(3,5-Dimethylisoxazol-4-yl)phenyl)-1,2,4-oxadiazol-3-yl)pyrrolidine-1-carbonitrile], the IC50 was in the range of 1000 to 10000 nM.

Turning to `N#CN1CCC(c2nnc(-c3cccc(-c4ccccc4)n3)[nH]2)C1` (centres unmarked) [Example 110, 3-(5-(6-Phenylpyridin-2-yl)-4H-1,2,4-triazol-3-yl)pyrrolidine-1-carbonitrile], the IC50 lay within 100 to 1000 nM.

Turning to `N#CN1CCCC1c1noc(-c2ccnc(-c3cccc(C(N)=O)c3)c2)n1` (centres unmarked) [Example 170, 3-(4-(3-(1-Cyanopyrrolidin-2-yl)-1,2,4-oxadiazol-5-yl)pyridin-2-yl)benzamide], the IC50 was 1000 to 10000 nM.

With `Cn1ncc2cc(-c3ccc4oc([C@@H]5CCCN5C#N)nc4c3)ccc21` [Example 135, (S)-2-(5-(1-Methyl-1H-indazol-5-yl)-benzo[d]oxazol-2-yl)pyrrolidine-1-carbonitrile], the IC50 was in the range of 1000 to 10000 nM.

On to `N#CN1CCC(c2cc(-c3cccc(-c4cnoc4)c3)[nH]n2)C1` (centres unmarked) [Example 33, 3-(5-(3-(Isoxazol-4-yl)phenyl)-1H-pyrazol-3-yl)pyrrolidine-1-carbonitrile], for which the IC50 fell in the range of 100 to 1000 nM.

For the molecule `N#CN1CCC(c2cc(-c3cccc(-c4ccccc4)n3)[nH]n2)C1` (centres unmarked) [Example 37, 3-(5-(6-Phenylpyridin-2-yl)-1H-pyrazol-3-yl)pyrrolidine-1-carbonitrile], the IC50 is 100 to 1000 nM.

Regarding `N#CN1CCC(c2noc(-c3ccccc3OCc3ccccc3)n2)C1` (centres unmarked) [Example 59, 3-(5-(2-(Benzyloxy)phenyl)-1,2,4-oxadiazol-3-yl)pyrrolidine-1-carbonitrile], the IC50 was 1000 to 10000 nM.

Turning to `C[C@H]1CN(C#N)C[C@@H]1c1[nH]nc(-c2cccc(-c3ccccc3)c2)c1F` [Example 23], the concentration for half-maximal inhibition (IC50) lay in the range of 100 to 1000 nM.

Consider `Cc1ccc2cc(-c3nc(C4CCN(C#N)C4)no3)ccc2n1` (centres unmarked) [Example 56, 3-(5-(2-Methylquinolin-6-yl)-1,2,4-oxadiazol-3-yl)pyrrolidine-1-carbonitrile], for which the IC50 lay in the range of 1000 to 10000 nM.

Take `N#CN1CCC(c2cc(-c3ccnc(-c4cccnc4)c3)n[nH]2)C1` (centres unmarked) [Example 47, 3-(3-([2,3′-Bipyridin]-4-yl)-1H-pyrazol-5-yl)pyrrolidine-1-carbonitrile]: the half-inhibitory concentration (IC50) lay within 100 to 1000 nM.

For the molecule `N#CN1CCC(c2cccc(-c3ccccc3)c2N)C1` (centres unmarked) [Example 123, 3-(2-Amino-[1,1′-biphenyl]-3-yl)pyrrolidine-1-carbonitrile], the IC50 is 100 to 1000 nM.

`Cn1c(C2CCN(C#N)C2)nc2cc(-c3ccccc3)cnc21` (centres unmarked) [Example 101, 3-(3-Methyl-6-phenyl-3H-imidazo[4,5-b]pyridin-2-yl)pyrrolidine-1-carbonitrile]: the IC50 is 100 to 1000 nM.

`N#CN1CCCC1c1noc(-c2ccnc(-c3cccc(OC(F)(F)F)c3)c2)n1` (centres unmarked) [Example 168, 2-(5-(2-(3-(Trifluoromethoxy)phenyl)-pyridin-4-yl)-1,2,4-oxadiazol-3-yl)pyrrolidine-1-carbonitrile]: the IC50 fell in the range of 100 to 1000 nM.

What is called IC50 is the concentration that gives 50% inhibition.
